Assay [1] concerns the target T1, Pyruvate kinase M2 (PKM2) in H1299 cells (Homo sapiens, UniProt P14618).
T1 construct: endogenous in cells; host or cells: H1299
Briefly: Cell based assay for activation of pyruvate kinase M2 in lung carcinoma cell line (NADH/LDH coupled assay on cell lysate). As to conditions: PKM2 cellular assay; for AC50: H1299 cells, 90 minutes with compound; for PKM2 % activation: maximal activation level relative to the activation level achieved by AG-348 @ 10 μM. The procedure:
Cell Based Assay for Activation of Pyruvate Kinase M2 in Lung Carcinoma Cell Line
H1299 cells were seeded in 96-well plates at 2,000 cells/well (100 uL). Treated plates were incubated overnight at 37° C. with 5% CO2. Compounds were diluted in complete media and added to cells in the presence of 1% DMSO. Cells were incubated with compound for 90 minutes at 37° C. and 5% CO2 before washing three times with PBS to remove residual compound and then lysed in lysis buffer (Cell Signaling). […] PKM2 activity was measured at steady state using a coupled enzyme activation system based on NADH consumption. PKM2 produces pyruvate and the coupled system uses lactate dehydrogenase (LDH) to reduce pyruvate to lactate with the concomitant oxidation of NADH to NAD^+. Conversion of NADH to NAD^+ was monitored using a SPECTROstar Nano plate reader (BMG Labtech) at a wavelength of 340 nm and subtraction of background absorbance measured at 750 nm. The change in NADH absorbance after PEP addition was monitored and slope obtained by subtracting baseline at 750 nm followed by least squares fitting to a simple linear regression model. A 10-point curve was generated to calculate the AC50 values by fitting the rates of NADH consumption against increasing concentration of compound.

Assay [2] concerns the target T2, Human pyruvate kinase R (PKR) (Homo sapiens, UniProt P30613).
T2 construct: Human pyruvate kinase R (PKR), residues 14-574; 6x-His (N, cleaved yes); 8x-Arg (N, cleaved yes); SUMO (N, cleaved yes); host or cells: E. coli
In words: Biochemical assay for activation of pyruvate kinase R (Kinase-Glo luminescence, ATP generation). Conditions: for AC50: 0.1 nM PKR, 2 mM FBP, 0.3 mM ADP, 0.1 mM PEP; for PKR % activation: maximal activation level relative to the activation level achieved by AG-348 @ 10 μM. The procedure, abridged: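 E. coli-expressed human PKR, freed of its His-Arg-SUMO tag and purified by anion exchange and size exclusion, was tested for activation. Read-out was luminescent measurement of ATP generation with Kinase-Glo reagent.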
(In general: Kinase-Glo measures the ATP left after a reaction by luminescence.)

Structures are written as SMILES.

T1 sequence (P14618 2-531 limits assumed): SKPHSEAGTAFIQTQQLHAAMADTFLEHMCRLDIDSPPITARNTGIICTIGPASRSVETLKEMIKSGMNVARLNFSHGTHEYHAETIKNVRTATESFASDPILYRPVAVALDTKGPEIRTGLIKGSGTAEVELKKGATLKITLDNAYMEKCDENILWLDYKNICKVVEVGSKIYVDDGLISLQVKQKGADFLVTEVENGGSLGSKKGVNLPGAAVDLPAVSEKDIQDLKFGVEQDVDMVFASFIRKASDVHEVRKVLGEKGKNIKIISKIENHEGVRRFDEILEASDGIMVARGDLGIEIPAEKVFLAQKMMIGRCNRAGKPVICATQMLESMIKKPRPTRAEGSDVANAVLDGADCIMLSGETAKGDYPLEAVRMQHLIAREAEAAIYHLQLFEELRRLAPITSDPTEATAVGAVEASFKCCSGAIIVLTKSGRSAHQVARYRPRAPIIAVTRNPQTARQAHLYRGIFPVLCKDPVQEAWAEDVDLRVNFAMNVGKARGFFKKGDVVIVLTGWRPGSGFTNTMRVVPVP
T2 sequence (P30613 14-574): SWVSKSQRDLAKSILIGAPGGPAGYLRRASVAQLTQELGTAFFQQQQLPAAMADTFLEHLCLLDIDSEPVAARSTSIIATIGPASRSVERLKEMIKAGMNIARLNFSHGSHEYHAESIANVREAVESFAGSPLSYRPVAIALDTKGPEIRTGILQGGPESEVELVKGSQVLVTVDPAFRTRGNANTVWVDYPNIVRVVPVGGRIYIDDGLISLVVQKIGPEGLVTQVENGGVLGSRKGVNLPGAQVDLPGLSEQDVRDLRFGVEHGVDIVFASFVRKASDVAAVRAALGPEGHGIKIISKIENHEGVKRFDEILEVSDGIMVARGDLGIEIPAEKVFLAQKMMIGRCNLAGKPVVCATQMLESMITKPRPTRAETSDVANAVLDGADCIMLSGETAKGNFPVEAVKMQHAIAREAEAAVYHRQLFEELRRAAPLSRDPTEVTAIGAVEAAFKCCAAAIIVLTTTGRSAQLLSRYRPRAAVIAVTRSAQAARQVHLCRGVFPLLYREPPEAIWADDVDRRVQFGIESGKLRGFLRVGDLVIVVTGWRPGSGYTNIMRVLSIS

With `NC(C(=O)N1Cc2cn(S(=O)(=O)c3ccc4ncsc4c3)nc2C1)c1cccc(C(F)(F)F)c1` (racemic) [Compound 26, 2-amino-1-[2-(1,3-benzothiazole-6-sulfonyl)-2H,4H,5H,6H-pyrrolo[3,4-c]pyrazol-5-yl]-2-[3-(trifluoromethyl)phenyl]ethan-1-one], the concentration at half-maximal activity (AC50) (commonly the concentration giving half of the maximal activity seen) in assay [1] is 147 nM; in assay [2] it was 72 nM.

With `Cc1cc(C(N)C(=O)N2Cc3cn(S(=O)(=O)c4ccc5ncsc5c4)nc3C2)ccc1F` (racemic) [Compound 39, 2-amino-1-[2-(1,3-benzothiazole-6-sulfonyl)-2H,4H,5H,6H-pyrrolo[3,4-c]pyrazol-5-yl]-2-(4-fluoro-3-methylphenyl)ethan-1-one], the AC50 in assay [1] came out at 53 nM; in assay [2] it was 41 nM.

For the molecule `O=C([C@@H](CO)c1ccccc1)N1Cc2cn(S(=O)(=O)c3ccc4ncsc4c3)nc2C1` (single isomer, unassigned) [Compound 1, (2R)-1-[2-(1,3-benzothiazole-6-sulfonyl)-2H,4H,5H,6H-pyrrolo[3,4-c]pyrazol-5-yl]-3-hydroxy-2-phenylpropan-1-one or (2S)-1-[2-(1,3-benzothiazole-6-sulfonyl)-2H,4H,5H,6H-pyrrolo[3,4-c]pyrazol-5-yl]-3-hydroxy-2-phenylpropan-1-one], in assay [1], the concentration at half-maximal activity (AC50) was determined as 33 nM and the PKM2 % activation amounted to 133%. Also, in assay [2], half-maximal activity (AC50) was put at 28 nM and the PKR % activation is 82%.

`C[C@@H](O)[C@H](C(=O)N1Cc2cn(S(=O)(=O)c3ccc4ncsc4c3)nc2C1)c1ccccc1` (single isomer, unassigned) [Compound 3]: in assay [1], the half-maximal activity concentration (AC50) turned out to be 45 nM and the PKM2 % activation is 101%. In addition, in assay [2], the AC50 came to 44 nM and the PKR % activation came out at 104%.

Consider `CC(O)C(C(=O)N1Cc2cn(S(=O)(=O)c3ccc4ncsc4c3)nc2C1)c1ccccc1` (single isomer, unassigned) [Compound 5], for which the figures for the half-maximal activity concentration (AC50) in assay [1] and in assay [2] were 38 nM and 82 nM, respectively.

Turning to `O=C([C@@H](CO)c1ccccc1)N1Cc2cn(S(=O)(=O)c3ccc(OC(F)F)cc3)nc2C1` (single isomer, unassigned) [Compound 7, (2R)-1-{2-[4-(difluoromethoxy)benzenesulfonyl]-2H,4H,5H,6H-pyrrolo[3,4-c]pyrazol-5-yl}-3-hydroxy-2-phenylpropan-1-one, or (2S)-1-{2-[4-(difluoromethoxy)benzenesulfonyl]-2H,4H,5H,6H-pyrrolo[3,4-c]pyrazol-5-yl}-3-hydroxy-2-phenylpropan-1-one], in assay [1], the half-maximal activity concentration (AC50) stood at 22 nM and the PKM2 % activation is given as 116%. In assay [2], this molecule came in with an AC50 of 76 nM and a PKR % activation of 137%.

On to `O=C(N1Cc2cn(S(=O)(=O)c3ccc4ncsc4c3)nc2C1)[C@]1(c2ccccn2)CCOC1` (single isomer, unassigned) [Compound 20, 6-({5-[(3S)-3-(pyridin-2-yl)oxolane-3-carbonyl]-2H,4H,5H,6H-pyrrolo[3,4-c]pyrazol-2-yl}sulfonyl)-1,3-benzothiazole or 6-({5-[(3R)-3-(pyridin-2-yl)oxolane-3-carbonyl]-2H,4H,5H,6H-pyrrolo[3,4-c]pyrazol-2-yl}sulfonyl)-1,3-benzothiazole], for which, in assay [1], the AC50 was 14 nM and the PKM2 % activation was determined as 60%. In assay [2], the AC50 was 44 nM and the PKR % activation came out at 113%.

For the molecule `O=C([C@@H](CO)c1ccccc1)N1Cc2cn(S(=O)(=O)c3ccc4c(c3)NCCO4)nc2C1` (single isomer, unassigned) [Compound 22, (2R)-1-[2-(3,4-dihydro-2H-1,4-benzoxazine-6-sulfonyl)-2H,4H,5H,6H-pyrrolo[3,4-c]pyrazol-5-yl]-3-hydroxy-2-phenylpropan-1-one or (2S)-1-[2-(3,4-dihydro-2H-1,4-benzoxazine-6-sulfonyl)-2H,4H,5H,6H-pyrrolo[3,4-c]pyrazol-5-yl]-3-hydroxy-2-phenylpropan-1-one], in assay [1], the half-maximal activity concentration (AC50) was found to be 33 nM and the PKM2 % activation is recorded as 79%. Further, in assay [2], the AC50 turned out to be 50 nM and the PKR % activation was found to be 99%.

`O=C([C@@H](CO)c1ccccc1)N1Cc2cn(S(=O)(=O)c3ccc4c(c3)OCCO4)nc2C1` (single isomer, unassigned) [Compound 25, (2R)-1-[2-(2,3-dihydro-1,4-benzodioxine-6-sulfonyl)-2H,4H,5H,6H-pyrrolo[3,4-c]pyrazol-5-yl]-3-hydroxy-2-phenylpropan-1-one or (2S)-1-[2-(2,3-dihydro-1,4-benzodioxine-6-sulfonyl)-2H,4H,5H,6H-pyrrolo[3,4-c]pyrazol-5-yl]-3-hydroxy-2-phenylpropan-1-one]: in assay [1], the AC50 came to 31 nM and the PKM2 % activation turned out to be 42%. In assay [2], the activity was half-maximal at 19 nM (AC50) and the PKR % activation is given as 44%.

Turning to `Cc1cccc([C@@]2(C(=O)N3Cc4cn(S(=O)(=O)c5ccc6ncsc6c5)nc4C3)CCOC2)n1` (single isomer, unassigned) [Compound 35, 6-({5-[(3S)-3-(6-methylpyridin-2-yl)oxolane-3-carbonyl]-2H,4H,5H,6H-pyrrolo[3,4-c]pyrazol-2-yl}sulfonyl)-1,3-benzothiazole or 6-({5-[(3R)-3-(6-methylpyridin-2-yl)oxolane-3-carbonyl]-2H,4H,5H,6H-pyrrolo[3,4-c]pyrazol-2-yl}sulfonyl)-1,3-benzothiazole], in assay [1], the concentration at half-maximal activity (AC50) was 93 nM and the PKM2 % activation came out at 89%. In assay [2], this molecule registered an AC50 of 62 nM and a PKR % activation of 115%.

As to `O=S(=O)(c1ccc2c(c1)NCCO2)N1Cc2cn(S(=O)(=O)c3ccc4ncsc4c3)nc2C1` [Compound 12, 6-{[2-(1,3-benzothiazole-6-sulfonyl)-2H,4H,5H,6H-pyrrolo[3,4-c]pyrazol-5-yl]sulfonyl}-3,4-dihydro-2H-1,4-benzoxazine], the concentration at half-maximal activity (AC50) in assay [1] is 23 nM; in assay [2], 41 nM.

As for `N[C@H](C(=O)N1Cc2cn(S(=O)(=O)c3ccc4ncsc4c3)nc2C1)c1ccccc1` [Compound 14, (2S)-2-amino-1[2-(1,3-benzothiazole-6-sulfonyl)-2H,4H,5H,6H-pyrrolo[3,4-c]pyrazol-5-yl]-2-phenylethan-1-one], the AC50 in assay [1] amounted to 53 nM; in assay [2], 110 nM.

Regarding `N[C@@H](C(=O)N1Cc2cn(S(=O)(=O)c3ccc4ncsc4c3)nc2C1)c1ccccc1` [Compound 15, (2R)-2-amino-1-[2-(1,3-benzothiazole-6-sulfonyl)-2H,4H,5H,6H-pyrrolo[3,4-c]pyrazol-5-yl]-2-phenylethan-1-one], the AC50 in assay [1] is 26 nM; in assay [2], 45 nM.

`N[C@@H](C(=O)N1Cc2cn(S(=O)(=O)c3ccc4ncsc4c3)nc2C1)c1ccccc1F` [Compound 17, (2R)-2-amino-1-[2-(1,3-benzothiazole-6-sulfonyl)-2H,4H,5H,6H-pyrrolo[3,4-c]pyrazol-5-yl]-2-(2-fluorophenyl)ethan-1-one]: the values for the half-maximal activity concentration (AC50) in assay [1] and in assay [2] were 23 nM and 24 nM, respectively.

With `O=C([C@H](NCCO)c1ccccc1F)N1Cc2cn(S(=O)(=O)c3ccc4ncccc4c3)nc2C1` [Compound 106, (2R)-2-(2-fluorophenyl)-2-[(2-hydroxyethyl)amino]-1-[2-(quinoline-6-sulfonyl)-2H,4H,5H,6H-pyrrolo[3,4-c]pyrazol-5-yl]ethan-1-one], the concentration at half-maximal activity (AC50) in assay [2] stood at 44 nM.

Source of the values: US20230159538A1, “PYRROLIDINE-PYRAZOLES AS PYRUVATE KINASE ACTIVATORS” (Global Blood Therapeutics, Inc., priority 2020, published 2023).
